In ChEMBL document CHEMBL1139705, “Synthesis and in vitro pharmacological studies of new C(4)-modified salvinorin A analogues” (Bioorg Med Chem Lett, 2006):

Assays:
[1] = target: T1, Kappa-type opioid receptor (Homo sapiens, UniProt P41145); assay: Displacement of [3H]diprenorphine binding from human kappa opioid receptor expressed in CHO cells; format: cell-based
[2] = target: T1, Kappa-type opioid receptor; assay: Binding potency at human kappa opioid receptor expressed in CHO cells by [35S]GTPgammaS binding assay; format: functional, cell-based
[3] = target: T1, Kappa-type opioid receptor; assay: Efficacy at human kappa opioid receptor expressed in CHO cells by [35S]GTP-gamma-S binding assay relative to U50,488H; format: functional, cell-based

T1 sequence (P41145 whole entry): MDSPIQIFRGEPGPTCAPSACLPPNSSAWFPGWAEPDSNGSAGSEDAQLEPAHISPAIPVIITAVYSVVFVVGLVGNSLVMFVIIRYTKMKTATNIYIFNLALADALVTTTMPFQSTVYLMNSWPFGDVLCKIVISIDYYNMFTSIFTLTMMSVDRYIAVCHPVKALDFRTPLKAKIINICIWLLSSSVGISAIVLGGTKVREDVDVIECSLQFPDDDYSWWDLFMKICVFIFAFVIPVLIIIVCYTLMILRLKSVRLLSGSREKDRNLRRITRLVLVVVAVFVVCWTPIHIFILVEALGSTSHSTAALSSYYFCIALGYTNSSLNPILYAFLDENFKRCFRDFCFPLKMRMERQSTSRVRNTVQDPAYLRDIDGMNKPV

Structure (SMILES)	Ki [1] [µM]	EC50 [2] [µM]	Efficacy [3] [%]
CC(=O)O[C@H]1C[C@@H](COC(=O)c2ccc(F)cc2)[C@]2(C)CC[C@H]3C(=O)O[C@H](c4ccoc4)C[C@]3(C)[C@H]2C1=O	> 1		
CC(=O)O[C@H]1C[C@@H](C(=O)O)[C@]2(C)CC[C@H]3C(=O)O[C@H](c4ccoc4)C[C@]3(C)[C@H]2C1=O	> 1		
CCOC[C@@H]1C[C@H](OC(C)=O)C(=O)[C@H]2[C@@]1(C)CC[C@H]1C(=O)O[C@H](c3ccoc3)C[C@]21C	> 1		
CC(=O)O[C@H]1C[C@@H](COC(=O)C(C)NC(=O)OCC2c3ccccc3-c3ccccc32)[C@]2(C)CC[C@H]3C(=O)O[C@H](c4ccoc4)C[C@]3(C)[C@H]2C1=O (stereo not given in full)	> 1		
CC(=O)O[C@H]1C[C@@H](COC(=O)c2ccc(C)cc2)[C@]2(C)CC[C@H]3C(=O)O[C@H](c4ccoc4)C[C@]3(C)[C@H]2C1=O	> 1		
CC(=O)O[C@H]1C[C@@H](COC(=O)C2CC2)[C@]2(C)CC[C@H]3C(=O)O[C@H](c4ccoc4)C[C@]3(C)[C@H]2C1=O	0.221	0.358	92
CC(=O)O[C@H]1C[C@@H](COC(=O)CNC(=O)OCC2c3ccccc3-c3ccccc32)[C@]2(C)CC[C@H]3C(=O)O[C@H](c4ccoc4)C[C@]3(C)[C@H]2C1=O	> 1		
COC(=O)[C@@H]1C[C@H](OC(C)=O)C(=O)[C@H]2[C@@]1(C)CC[C@H]1C(=O)O[C@H](c3ccoc3)C[C@]21C			106
CC(=O)O[C@H]1C[C@@H](COC(=O)C(C)N(C)C(=O)OCC2c3ccccc3-c3ccccc32)[C@]2(C)CC[C@H]3C(=O)O[C@H](c4ccoc4)C[C@]3(C)[C@H]2C1=O (stereo not given in full)	> 1		
C#CCC(=O)OC[C@@H]1C[C@H](OC(C)=O)C(=O)[C@H]2[C@@]1(C)CC[C@H]1C(=O)O[C@H](c3ccoc3)C[C@]21C	> 1		
CC(=O)O[C@H]1C[C@@H](COC(=O)Cc2ccccc2)[C@]2(C)CC[C@H]3C(=O)O[C@H](c4ccoc4)C[C@]3(C)[C@H]2C1=O	> 1		
COCCOCC(=O)OC[C@@H]1C[C@H](OC(C)=O)C(=O)[C@H]2[C@@]1(C)CC[C@H]1C(=O)O[C@H](c3ccoc3)C[C@]21C	0.613	0.21	98
CC(=O)O[C@H]1C[C@@H](COC(=O)c2cccc(F)c2)[C@]2(C)CC[C@H]3C(=O)O[C@H](c4ccoc4)C[C@]3(C)[C@H]2C1=O	> 1		
CC(=O)O[C@H]1C[C@@H](c2nnnn2CCC#N)[C@]2(C)CC[C@H]3C(=O)O[C@H](c4ccoc4)C[C@]3(C)[C@H]2C1=O	> 1		
CC(=O)O[C@H]1C[C@@H](COCc2ccccc2)[C@]2(C)CC[C@H]3C(=O)O[C@H](c4ccoc4)C[C@]3(C)[C@H]2C1=O	> 1		
CC(=O)O[C@H]1C[C@@H](COC(=O)c2ccc(Br)cc2)[C@]2(C)CC[C@H]3C(=O)O[C@H](c4ccoc4)C[C@]3(C)[C@H]2C1=O	> 1		
CC(=O)OC[C@@H]1C[C@H](OC(C)=O)C(=O)[C@H]2[C@@]1(C)CC[C@H]1C(=O)O[C@H](c3ccoc3)C[C@]21C	> 1		
C/C=C/C(=O)OC[C@@H]1C[C@H](OC(C)=O)C(=O)[C@H]2[C@@]1(C)CC[C@H]1C(=O)O[C@H](c3ccoc3)C[C@]21C	> 1		
COCCOCC(=O)OC[C@@H]1C[C@H](OC(C)=O)C(=O)[C@H]2[C@@]1(C)CC[C@@H]1C(=O)O[C@H](c3ccoc3)C[C@]21C	> 1		
C=CCOC[C@@H]1C[C@H](OC(C)=O)C(=O)[C@H]2[C@@]1(C)CC[C@H]1C(=O)O[C@H](c3ccoc3)C[C@]21C	> 1		
CC(=O)O[C@H]1C[C@@H](COC(=O)C(NC(=O)OCC2c3ccccc3-c3ccccc32)c2ccccc2)[C@]2(C)CC[C@H]3C(=O)O[C@H](c4ccoc4)C[C@]3(C)[C@H]2C1=O (stereo not given in full)	> 1		
CC(=O)O[C@H]1C[C@@H](C=O)[C@]2(C)CC[C@H]3C(=O)O[C@H](c4ccoc4)C[C@]3(C)[C@H]2C1=O	> 1		
COC[C@@H]1C[C@H](OC(C)=O)C(=O)[C@H]2[C@@]1(C)CC[C@H]1C(=O)O[C@H](c3ccoc3)C[C@]21C	> 1		
CC(=O)O[C@H]1C[C@@H](CO)[C@]2(C)CC[C@H]3C(=O)O[C@H](c4ccoc4)C[C@]3(C)[C@H]2C1=O	0.0434	0.0207	107
